Reference: the supplement of paper PMC10307832

What was measured:
Assay in all cases: relative viability (nuclei count vs DMSO), 5 days (fraction); higher = more cells survive
[1] = compound: C/C(=N\NC(=S)N1CCC1)/C2=CC=CC=N2 + Nc1ncn([C@H]2C[C@H](O)[C@@H](CO)O2)c(=O)n1 [Decitabine] (partner 2 µM)
In short: (§1)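 After 5 days of treatment, lung cancer cells in 1536-well plates were fixed and stained in a single step (final 0.05% Triton X-100, 1% formaldehyde, 1 ug/ml Hoechst) and their nuclei counted on 4× images. Treatment had been applied by pin tool the day after seeding as one drug alone or as a fixed anchor-drug dose with five library-drug doses (not always all listed) in √10 steps. Relative viability is the nuclei count of treated wells divided by that of vehicle wells, and values are medians of duplicate plates.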

[2] = compound: C/C(=N\NC(=S)N1CCC1)/C2=CC=CC=N2 + CC(C)C[C@H](NC(=O)[C@H](Cc1ccccc1)NC(=O)c1cnccn1)B(O)O [Bortezomib] (partner 0.002 µM)
In short: as §1

[3] = compound: C/C(=N\NC(=S)N1CCC1)/C2=CC=CC=N2 + Cc1cc(Nc2cc(N3CCN(C)CC3)nc(Sc3ccc(NC(=O)C4CC4)cc3)n2)n[nH]1 [Tozasertib] (partner 0.1 µM)
In short: as §1

[4] = compound: C/C(=N\NC(=S)N1CCC1)/C2=CC=CC=N2 + NC(=O)Nc1cc(-c2cccc(F)c2)sc1C(=O)N[C@H]1CCCNC1 [AZD7762] (partner 0.2 µM)
In short: as §1

| Cell Line | relative viability ([1]; first compound 0.05 µM) | relative viability ([1]; first compound 0.1581 µM) | relative viability ([1]; first compound 0.5 µM) | relative viability ([1]; first compound 1.581 µM) | relative viability ([1]; first compound 5 µM) | relative viability ([2]; first compound 0.05 µM) | relative viability ([2]; first compound 0.1581 µM) | relative viability ([2]; first compound 0.5 µM) | relative viability ([2]; first compound 1.581 µM) | relative viability ([2]; first compound 5 µM) | relative viability ([3]; first compound 0.05 µM) | relative viability ([3]; first compound 0.1581 µM) | relative viability ([3]; first compound 0.5 µM) | relative viability ([3]; first compound 1.581 µM) | relative viability ([3]; first compound 5 µM) | relative viability ([4]; first compound 0.05 µM) | relative viability ([4]; first compound 0.1581 µM) | relative viability ([4]; first compound 0.5 µM) | relative viability ([4]; first compound 1.581 µM) | relative viability ([4]; first compound 5 µM) |
| --- | --- | --- | --- | --- | --- | --- | --- | --- | --- | --- | --- | --- | --- | --- | --- | --- | --- | --- | --- | --- |
| LCLC-97TM1 | 0.0771 | 0.284 | 0.0691 | 0.0739 | 0.0762 | 0.0597 | 0.0472 | 0.0458 | 0.0548 | 0.0452 | 0.193 | 0.218 | 0.105 | 0.128 | 0.165 | 0.0761 | 0.0694 | 0.0641 | 0.0548 | 0.0577 |
| HARA | 0.229 | 0.168 | 0.153 | 0.242 | 0.164 | 0.22 | 0.143 | 0.197 | 0.13 | 0.0787 | 0.0547 | 0.0677 | 0.0627 | 0.0539 | 0.0645 | 0.129 | 0.199 | 0.144 | 0.104 | 0.124 |
| HCC-78 | 0.453 | 0.413 | 0.407 | 0.244 | 0.22 | 0.509 | 0.257 | 0.178 | 0.153 | 0.232 | 0.332 | 0.205 | 0.248 | 0.206 | 0.202 | 0.327 | 0.332 | 0.226 | 0.169 | 0.174 |
| NCI-H1666 | 0.367 | 0.368 | 0.411 | 0.329 | 0.375 | 0.218 | 0.271 | 0.232 | 0.198 | 0.221 | 0.35 | 0.33 | 0.301 | 0.3 | 0.305 | 0.304 | 0.398 | 0.352 | 0.3 | 0.331 |
| NCI-H2347 | 0.363 | 0.335 | 0.34 | 0.349 | 0.367 | 0.299 | 0.329 | 0.401 | 0.268 | 0.263 | 0.173 | 0.254 | 0.177 | 0.244 | 0.258 | 0.192 | 0.235 | 0.218 | 0.198 | 0.244 |
| NCI-H838 | 0.258 | 0.261 | 0.265 | 0.192 | 0.2 | 0.165 | 0.181 | 0.172 | 0.134 | 0.145 | 0.148 | 0.143 | 0.137 | 0.133 | 0.129 | 0.579 | 0.684 | 0.653 | 0.616 | 0.637 |
| NCI-H2023 | 0.0753 | 0.0791 | 0.067 | 0.0569 | 0.0755 | 0.096 | 0.0935 | 0.0847 | 0.0887 | 0.0763 | 0.063 | 0.0672 | 0.0602 | 0.0657 | 0.0603 |  |  |  |  |  |
| 201T | 0.553 | 0.802 | 0.348 | 0.29 | 0.28 | 0.527 | 0.612 | 0.418 | 0.394 | 0.348 | 0.424 | 0.445 | 0.368 | 0.292 | 0.296 | 0.287 | 0.285 | 0.273 | 0.211 | 0.233 |
| NCI-H1915 | 0.115 | 0.123 | 0.144 | 0.124 | 0.148 | 0.319 | 0.182 | 0.159 | 0.149 | 0.137 | 0.178 | 0.137 | 0.129 | 0.131 | 0.139 | 0.16 | 0.114 | 0.134 | 0.119 | 0.122 |
| NCI-H2009 | 0.114 | 0.155 | 0.144 | 0.136 | 0.117 | 0.117 | 0.126 | 0.138 | 0.122 | 0.0916 | 0.103 | 0.148 | 0.143 | 0.183 | 0.149 |  |  |  |  |  |
| BEN | 0.253 | 0.338 | 0.318 | 0.266 | 0.359 | 0.15 | 0.211 | 0.211 | 0.193 | 0.165 | 0.334 | 0.354 | 0.336 | 0.352 | 0.397 | 0.265 | 0.339 | 0.288 | 0.238 | 0.279 |
| PC-14 | 0.0702 | 0.088 | 0.0592 | 0.0503 | 0.0468 | 0.114 | 0.106 | 0.0629 | 0.0768 | 0.0781 | 0.0506 | 0.0536 | 0.0474 | 0.05 | 0.0386 | 0.08 | 0.12 | 0.106 | 0.0559 | 0.0985 |
| SK-MES-1 | 0.193 | 0.186 | 0.171 | 0.142 | 0.19 |  |  |  |  |  | 0.22 | 0.188 | 0.183 | 0.158 | 0.147 |  |  |  |  |  |
| NCI-H727 | 0.406 | 0.366 | 0.394 | 0.398 | 0.466 | 0.171 | 0.214 | 0.156 | 0.174 | 0.184 | 0.28 | 0.311 | 0.257 | 0.159 | 0.261 | 0.265 | 0.249 | 0.311 | 0.228 | 0.312 |
| NCI-H1355 | 0.206 | 0.207 | 0.189 | 0.172 | 0.157 | 0.2 | 0.205 | 0.21 | 0.212 | 0.195 | 0.186 | 0.169 | 0.17 | 0.172 | 0.163 | 0.168 | 0.17 | 0.135 | 0.146 | 0.155 |
| NCI-H1975 | 0.151 | 0.18 | 0.154 | 0.156 | 0.184 | 0.15 | 0.144 | 0.134 | 0.147 | 0.156 | 0.105 | 0.0772 | 0.0873 | 0.101 | 0.0836 | 0.308 | 0.239 | 0.225 | 0.234 | 0.24 |
| LK-2 | 0.0805 | 0.111 | 0.0805 | 0.0894 | 0.0937 |  |  |  |  |  | 0.166 | 0.139 | 0.157 | 0.147 | 0.149 | 0.0945 | 0.0875 | 0.049 | 0.086 | 0.0796 |
